Laboratory results as given in publication PMC3014437 (Bioorganic & medicinal chemistry, 2010).

test system: LPS-induced iNOS-dependent NO production; assay: LPS-induced NO production; assay type: cell-based, murine; conditions: Mus musculus, read-out: IC50 (µM) in NOS

Q: Which IC50 does the source give for `C=C(C)C#Cc1c(C)c(OC)c(OC)c2c1OCO2` [Compound 2, Benzocamphorin B] here?
A: 12.1 µM

Q: Which IC50 does the source give for `COc1cc(C)c(OC)c2c1OCO2` [Compound 8, 4,7-dimethoxy-5-methyl-1,3-benzodioxole] here?
A: 29.1 ± 4.4 µM

Q: With `C=C(CC[C@@H](C)[C@H]1CC[C@H]2C3=C(C(=O)C[C@]12C)[C@@]1(C)CC[C@@H](O)[C@](C)(O)[C@@H]1C[C@@H]3O)C(C)C(=O)O` (stereo partly shown) [Compound 32, antcin K] as the compound, how does the IC50 read?
A: > 50 µM

Q: For `CC(C)[C@@H](C)/C=C/[C@@H](C)[C@H]1CC[C@@H]2[C@]1(C)CC[C@H]1[C@]23C=C[C@]2(C[C@@H](O)CC[C@]12C)OO3` [Compound 37, ergosterol peroxide], which IC50 is on record?
A: 6.3 ± 1.8 µM
